In publication PMC7615677 (Science translational medicine, 2023):
Several values for one entry are separate records, joined by “and”; a condition that tells them apart may be missing. Equal values may be shown once.

Assays:
L. infantum = experiment: Promastigote back-transformation assay on organs of treated hamsters; type: in vivo, golden hamsters; settings: for parasite score, Bone-marrow / parasite score, Liver / parasite score, Spleen: 5 days, individual animals 1-5
From the text: Female golden hamsters (5 per treatment group) were infected through intracardiac administration of 2x10^7 L. infantum amastigotes obtained from the spleen of a heavily infected donor hamster. […] After 5-day treatment period, followed by a 10-day wash out period, animals were sacrificed, and parasites burden assessed in the three target organs (liver, spleen, and bone-marrow). For this assessment, organs of individual animals were weighed, except for bone-marrow thus only providing a semi-quantitative evaluation only. Impression smears were Giemsa-stained for microscopic evaluation of amastigote burden, expressed as LDU (= mean number of amastigotes/cell × organ weight in mg) and the results were expressed as a percentage reduction compared to the burdens in the control group (vehicle as placebo). For evaluating the presence of viable residual burden after treatment, a promastigote back-transformation assay was conducted. This consisted of the incubation at ambient temperature of aseptically collected pieces of spleen or liver tissue in 1 mL of promastigote back-transformation medium in 24-well plates. For the bone-marrow, resected femurs were flushed with 1 mL medium. The medium consists of HOMEM pH 6.0 prepared as described elsewhere ([5]) with 10% fetal bovine serum (Gibco), 2.5% penicillin/streptomycin and 1% gentamicin (Merck). A qualitative assessment of the presence of promastigotes was made after 3 and 5 days of incubation and a score was attributed (+, ++ or +++) based on parasite density in the positive wells.
Supplementary Materials and methods
Promastigote transformation assay
For evaluating the presence of viable residual burdens after treatment, a promastigote back-transformation assay is conducted. This test consists of the incubation at ambient temperature of aseptically collected pieces of spleen or liver tissue in 1 mL of promastigote back-transformation medium in 24-well plates. For the bone-marrow, resected femurs are flushed with 1 mL medium. The medium consists of HOMEM pH 6.0 prepared as described elsewhere (1) with 10% fetal bovine serum (Gibco) and 2.5% penicillin/streptomycin and 1% gentamicin (Merck). A qualitative assessment of the presence of promastigotes is made after 3 and 5 days of incubation and a score is attributed (+, ++ or +++) based on parasite density in the positive […]
Supplementary Information on Tables
L. infantum MHOM/FR/96/LEM3323 Cl4 was originally obtained from a French HIV-positive patient (Languedoc area in Southern France) and provided by Dr. Laurence Lachaud of the Centre National de Référence des Leishmanioses (CNRL), Montpellier, France. The miltefosine and paromomycin resistant lines (LEM3323 Cl4 MIL-R and PMM-R) were obtained by successive in vitro selection cycles on intracellular amastigotes (2, 3)

[1] = In vitro metabolism, cryopreserved hepatocytes; type: in vitro ADME, mouse
Protocol: Cell viability was determined using trypan blue exclusion. The incubation was performed on a plate shaker (Heidolph Titrimax 100, 900 rpm) placed in a humidified incubator (37°C, 7.5% CO2) for 240 min. The reaction was initiated with the addition of compound with samples taken periodically and quenched with the addition of acetonitrile containing internal standards (metolazone and diazepam). Quenched samples were maintained on ice for approximately 20-30 min, centrifuged (for 5 min) and the supernatant analyzed by LC-MS.
(§1) In vitro intrinsic clearance (CLint, μL/min/mg or μL/min/10^6 cells) values were calculated from the apparent first order degradation rate constant divided by the microsome concentration or the hepatocyte cell number (10^6 viable cells/mL). In vitro CLint values were then divided by the fraction unbound in the in vitro test system (to give CLint,u) and scaled to in vivo values (mL/min/kg) using published physiological scaling factors ([28]). Blood clearance in each species was then calculated using the well-stirred model of hepatic extraction (equation 2) where Q is the hepatic blood flow and fu,blood is calculated from fu,plasma/B:P: [2] PredictedCLblood=Q x fu,blood x CLint,u/Q+fu,blood x CLint,u
(§2) Blood clearance values were converted to plasma clearance by multiplying by the B:P.

[2] = In vitro metabolism, liver microsomes; type: in vitro ADME, dog
Protocol: Compounds were spiked into microsomal matrix prepared in 0.1 M pH 7.4 phosphate buffer containing magnesium chloride (final concentration of 3.3 mM), equilibrated for 5-10 min at 37°C. The reaction was initiated with the addition of freshly prepared solution of NADPH (final 1.3 mM). Control samples without co-factor were included for comparison. Aliquots of the reaction mixtures were taken periodically over 60 min and quenched with acetonitrile containing internal standards (metolazone and diazepam). Quenched samples were maintained on ice for approximately 20-30 min, centrifuged (for 5 min) and the supernatant was analyzed by LC-MS.
as §1, §2

[3] = tested on: Ca2+ channel, (L,dihydropyridine site); experiment: In vitro pharmacology panel (Eurofins); type: binding, rat; settings: 10 µM
From the text: (§3) Listed values represent the percent change relative to the DMSO control activity. When an IC50 had to be determined, eight different concentrations were included. All values are the mean of assay readout duplicates.

Na+ channel (site 2) = experiment: In vitro pharmacology panel (Eurofins); type: binding, rat; settings: 10 µM
From the text: as §3

BZD (central) = experiment: In vitro pharmacology panel (Eurofins); type: binding, rat; settings: 10 µM
From the text: as §3

KV channel = experiment: In vitro pharmacology panel (Eurofins); type: binding, rat; settings: 10 µM
From the text: as §3

NMDA receptor = experiment: In vitro pharmacology panel (Eurofins); type: binding, rat; settings: 10 µM
From the text: as §3

[4] = In vitro cytotoxicity assays, all cell lines tested; type: cell-based; settings: mouse, human, African green monkey

Compound: Cc1[nH]c2nc(N)nc(C)c2c1-c1ccc(C#N)c2c1OCO2 [DNDI-6174]
- parasite score, Bone-marrow (L. infantum; 3.125 mg/kg bid): ++
- parasite score, Liver (L. infantum; 3.125 mg/kg bid): + (3×) and - (2×)
- parasite score, Spleen (L. infantum; 3.125 mg/kg bid): ++
- parasite score, Bone-marrow (L. infantum; 12.5 mg/kg bid): - and +
- parasite score, Liver (L. infantum; 12.5 mg/kg bid): -
- parasite score, Spleen (L. infantum; 12.5 mg/kg bid): - and +
- parasite score, Bone-marrow (L. infantum; 12.5 mg/kg qd): + (3×) and ++ (2×)
- parasite score, Liver (L. infantum; 12.5 mg/kg qd): + (3×) and - (2×)
- parasite score, Spleen (L. infantum; 12.5 mg/kg qd): ++ (4×) and +
- parasite score, Bone-marrow (L. infantum; 25 mg/kg qd): + and - (4×)
- parasite score, Liver (L. infantum; 25 mg/kg qd): - (4×) and +
- parasite score, Spleen (L. infantum; 25 mg/kg qd): -
- parasite score, Bone-marrow (L. infantum; 50 mg/kg qd): - (4×) and +
- parasite score, Liver (L. infantum; 50 mg/kg qd): - (4×) and +
- parasite score, Spleen (L. infantum; 50 mg/kg qd): - (4×) and +
- emergence of viable promastigotes from recovered organs, in words (L. infantum; DNDI-6174 treated animals): almost all the organs recovered proved to be negative in culture
- Hepatocyte predicted in vivo CLplasma ([1]; Mouse): 17 mL/min/kg
- hepatocyte CLint at 0.5 µM ([1]; mouse, cryopreserved hepatocytes): 9.7 ± 0.091 µL/min/1e6 cells
- Microsome predicted in vivo CLplasma ([2]; Dog): 0.91 mL/min/kg
- In vitro Microsome CLint ([2]; Dog, 2 independent experiments): 4.8 ± 0.47 µL/min/mg
- microsomal CLint at 0.5 µM ([2]; dog, liver microsomes, pH 7.4, Dog, 2 independent experiments, read-out: In vitro Microsome CLint): 8.3 ± 0.65 µL/min/mg
- activity (% of DMSO control) [3]: 89.6%
- activity (% of DMSO control) (Na+ channel (site 2)): 73.9%
- activity (% of DMSO control) (BZD (central)): 90.2%
- activity (% of DMSO control) (KV channel): 98.7%
- activity (% of DMSO control) (NMDA receptor): 89.6%
- CC50 [4]: > 37 µM
